Measured values as given in patent US5641804A, “Fungicidal compound comprising a cyclic polylactone” (Novo Nordisk A/S, priority 1992, dated 1997).
Values after ≈ are worked out from the molar mass of the structure shown.

Experiments:
Ascochyta pisi = assay: Agar well inhibition zone, Ascochyta pisi (Ap); type: cell-based; details: Ascochyta pisi, 72 h, 15 μl per well, 3 days at 25° C.
Procedure: Ascochyta pisi (Ap) leaf, stem and pod rot
(§1) Each of the above mentioned 9 pathogens were separately innoculated into 100 ml of potato dextrose (PD) bouillon and shaken at 200 rpm at 25° C. for 7 days. The mycelium was harvested and homogenized for about 10 seconds in a Warring blender and 1-5 ml of the blended mycelium was transferred to petri dishes with a diameter of 14 cm. […] 20 ml of potato dextrose agar (PDA) having a temperature of 45° C. were poured into each of the petri dishes and thorougly mixed with the blended mycelium present therein. When the agar had solidified, wells of a diameter of 4 mm were punched in the agar, and 15 μl of test solutions containing varicus concentrations of compound Ia, Ib and IIa dissolved in ethanol was applied to each well. The plates were incubated for three days at 25° C. and the inhibition zones measured (in mm). […]

Phoma lingam = assay: Agar well inhibition zone, Phoma lingam (Pl); type: cell-based; details: Plenodomus lingam, 72 h, 15 μl per well, 3 days at 25° C., read-out: inhibition zone P1
Procedure: Phoma lingam (Pl) canker and dry rot
as §1

Pyrenophora teres = assay: Agar well inhibition zone, Pyrenophora teres (Pt); type: cell-based; design: key to inhibition zone Pt: clear; diffuse; very diffuse; +: very weak; details: 15 μl per well, 3 days at 25° C.
Procedure: Pyrenophora teres (Pt) net blotch disease
as §1

Sclerotinia sclerotiorum = assay: Agar well inhibition zone, Sclerotinia sclerotiorum (Ss); type: cell-based; details: Sclerotinia sclerotiorum, 72 h, 15 μl per well, 3 days at 25° C.
Procedure: Sclerotinia sclerotiorum (Ss) white mould disease, stem rot
as §1

plant pathogenic fungi = assay: In vitro fungicidal activity spectrum over the pathogens tested; type: cell-based
Procedure: The following pathogens were used:
(§2) Each of the above mentioned 9 pathogens were separately innoculated into 100 ml of potato dextrose (PD) bouillon and shaken at 200 rpm at 25° C. for 7 days. The mycelium was harvested and homogenized for about 10 seconds in a Warring blender and 1-5 ml of the blended mycelium was transferred to petri dishes with a diameter of 14 cm. […] 20 ml of potato dextrose agar (PDA) having a temperature of 45° C. were poured into each of the petri dishes and thorougly mixed with the blended mycelium present therein. When the agar had solidified, wells of a diameter of 4 mm were punched in the agar, and 15 μl of test solutions containing varicus concentrations of compound Ia, Ib and IIa dissolved in ethanol was applied to each well. The plates were incubated for three days at 25° C. and the inhibition zones measured (in mm).
(§3) The experiments were repeated and in the second run, Bc plates were made from Bc spores (the plates were termed Bc2) as such plates may result in a more uniform growth.

Phoma betae = assay: Agar well inhibition zone, Phoma betae (Pb); type: cell-based; details: Neocamarosporium betae, 72 h, 15 μl per well, 3 days at 25° C.
Procedure: Phoma betae (Pb) seedling black rot, black leg
as §1

Botrytis cinerea [1] = assay: Agar well inhibition zone, Botrytis cinerea, mycelium plates (Bc1); type: cell-based; design: key to inhibition zone Bc1: clear; diffuse; very diffuse; +: very weak; details: 15 μl per well, 3 days at 25° C.
Procedure: (§4) Botrytis cinerea (Bc) grey mould
as §1

[2] = tested on: mouse peritoneal macrophage; assay: Mouse peritoneal macrophage assay, cellular ATP (viability); type: cell-based
Botrytis cinerea [3] = assay: Agar well inhibition zone, Botrytis cinerea, plates made from spores (Bc2); type: cell-based
Procedure: as §4, §2, §3

Alternaria alternata = assay: Agar well inhibition zone, Alternaria alternata (Aa); type: cell-based; details: Alternaria alternata, 72 h, 15 μl per well, 3 days at 25° C.
Procedure: Alternaria alternata (Aa) black mould coverings, leaf spot
as §2, §3

[4] = tested on: mouse peritoneal macrophage; assay: Mouse peritoneal macrophage assay, chemiluminescence (phagocytosis); type: cell-based
Monilinia fructigena = assay: Agar well inhibition zone, Monilinia fructigena (Mf); type: cell-based; details: Monilinia fructigena, 72 h, 15 μl per well, 3 days at 25° C.
Procedure: Monilinia fructigena (Mf) brown rot, fruit rot
as §1

Botrytis cinerea [5] = assay: Fungicidal activity in vivo against Botrytis cinerea on sprayed plants; details: spray to run off, assessed after 6 days
Procedure: Activity of the compounds Ia and Ib against Botrytis cinerea Host: Lycopersicon esculentum (tomato, var. First in Field) […] plants (5 weeks old) were sprayed to run off with liquid solutions using a handhold sprayer (Bink Bullows 900). The solution (70% EtOH) had different concentrations of the compounds Ia and Ib. The plants were kept 24 hours in a green house to dry before they were inoculated with a spore suspension containing 1×10^5 spores/ml in 25% grape juice. The inoculation was carried out with a handhold atomizer (Wagner, Pico Bel). The plants were then incubated (16 hours light (1000 lux) and 8 hours dark) at 15°-20° C. in clear polyethylene bags to raise the relative humidity to 95-100%. After 6 days the assessment was done.

Q: For `C[C@@H]1Cc2cc(O)cc(O)c2C(=O)O[C@H](C)CC(=O)O[C@H](CO)CC(=O)O[C@H](C)Cc2cc(O)cc(O)c2C(=O)O[C@H](C)CC(=O)O1` [Compound Ia], which zone of inhibition at 10 µg/mL (Ascochyta pisi; 0.01 mg/ml) is on record?
A: The zone of inhibition at 10 µg/mL was 0 mm.

Q: And the zone of inhibition at 50 µg/mL (Ascochyta pisi; 0.05 mg/ml)?
A: The zone of inhibition at 50 µg/mL was 0 mm.

Q: What about the zone of inhibition at 500 µg/mL (Ascochyta pisi; 0.5 mg/ml) of the same compound?
A: Its zone of inhibition at 500 µg/mL is 0 mm.

Q: And the zone of inhibition at 1000 µg/mL (Ascochyta pisi; 1.0 mg/ml)?
A: The zone of inhibition at 1000 µg/mL was 0 mm.

Q: And the zone of inhibition at 10 µg/mL (Phoma lingam; 0.01 mg/ml)?
A: Its zone of inhibition at 10 µg/mL is 0 mm.

Q: And the zone of inhibition at 50 µg/mL (Phoma lingam; 0.05 mg/ml)?
A: The zone of inhibition at 50 µg/mL was 18 mm.

Q: What about the zone of inhibition at 500 µg/mL (Phoma lingam; 0.5 mg/ml) of the same compound?
A: The zone of inhibition at 500 µg/mL was 42 mm.

Q: And the zone of inhibition at 1000 µg/mL (Phoma lingam; 1.0 mg/ml)?
A: Its zone of inhibition at 1000 µg/mL is 49 mm.

Q: And the “inhibition zone Pt” value (Pyrenophora teres; 0.05 mg/ml)?
A: Its value is “+”.

Q: And the zone of inhibition at 10 µg/mL (Pyrenophora teres; Pyrenophora teres, 72 h, 0.01 mg/ml)?
A: The zone of inhibition at 10 µg/mL was 0 mm.

Q: And the zone of inhibition at 500 µg/mL (Pyrenophora teres; Pyrenophora teres, 72 h, 0.5 mg/ml)?
A: Its zone of inhibition at 500 µg/mL is 35 mm.

Q: What about the zone of inhibition at 1000 µg/mL (Pyrenophora teres; Pyrenophora teres, 72 h, 1.0 mg/ml) of the same compound?
A: Its zone of inhibition at 1000 µg/mL is 40 mm.

Q: What about the zone of inhibition at 10 µg/mL (Sclerotinia sclerotiorum; 0.01 mg/ml) of the same compound?
A: The zone of inhibition at 10 µg/mL was 0 mm.

Q: What about the zone of inhibition at 50 µg/mL (Sclerotinia sclerotiorum; 0.05 mg/ml) of the same compound?
A: Its zone of inhibition at 50 µg/mL is 24 mm.

Q: What about the zone of inhibition at 500 µg/mL (Sclerotinia sclerotiorum; 0.5 mg/ml) of the same compound?
A: The zone of inhibition at 500 µg/mL was 42 mm.

Q: What about the zone of inhibition at 1000 µg/mL (Sclerotinia sclerotiorum; 1.0 mg/ml) of the same compound?
A: The zone of inhibition at 1000 µg/mL was 50 mm.

Q: What about the activity spectrum (plant pathogenic fungi; all pathogens tested, Table 2) of the same compound?
A: Its activity spectrum is “more effective than the compound of formula IIa”.

Q: What about the “number of pathogens against which compound was active” value (plant pathogenic fungi; with respect to Bc only for the plate containing spores) of the same compound?
A: The value was 5 pathogens.

Q: And the zone of inhibition at 10 µg/mL (Phoma betae; 0.01 mg/ml)?
A: Its zone of inhibition at 10 µg/mL is 0 mm.

Q: And the zone of inhibition at 50 µg/mL (Phoma betae; 0.05 mg/ml)?
A: The zone of inhibition at 50 µg/mL was 0 mm.

Q: And the zone of inhibition at 500 µg/mL (Phoma betae; 0.5 mg/ml)?
A: Its zone of inhibition at 500 µg/mL is 0 mm.

Q: And the zone of inhibition at 1000 µg/mL (Phoma betae; 1.0 mg/ml)?
A: The zone of inhibition at 1000 µg/mL was 0 mm.

Q: And the “inhibition zone Bc1” value (Botrytis cinerea [1]; 0.05 mg/ml)?
A: Its value is “+”.

Q: And the “inhibition zone Bc1” value (Botrytis cinerea [1]; 0.5 mg/ml)?
A: Its value is “+”.

Q: And the “inhibition zone Bc1” value (Botrytis cinerea [1]; 1.0 mg/ml)?
A: The value was “+”.

Q: And the zone of inhibition at 10 µg/mL (Botrytis cinerea [1]; Botrytis cinerea, 72 h, 0.01 mg/ml)?
A: The zone of inhibition at 10 µg/mL was 0 mm.

Q: What about the IC50 [2] of the same compound?
A: The IC50 was 2.5 µg/mL (≈ 3.77 µM).

Q: What about the “appearance of Bc zones” value (Botrytis cinerea [3]; Bc plates) of the same compound?
A: Its value is “very diffuse”.

Q: What about the “time of incubation after which Bc zones could be seen” value (Botrytis cinerea [3]; Bc plates) of the same compound?
A: Its value is at least 3 days.

Q: And the zone of inhibition at 50 µg/mL (Botrytis cinerea [3]; Botrytis cinerea, 72 h, 0.05 mg/ml, 15 μl per well, 3 days at 25° C., plates from spores)?
A: Its zone of inhibition at 50 µg/mL is 12 mm.

Q: And the zone of inhibition at 500 µg/mL (Botrytis cinerea [3]; Botrytis cinerea, 72 h, 0.5 mg/ml, 15 μl per well, 3 days at 25° C., plates from spores)?
A: The zone of inhibition at 500 µg/mL was 48 mm.

Q: What about the zone of inhibition at 1000 µg/mL (Botrytis cinerea [3]; Botrytis cinerea, 72 h, 1.0 mg/ml, 15 μl per well, 3 days at 25° C., plates from spores) of the same compound?
A: Its zone of inhibition at 1000 µg/mL is 56 mm.

Q: What about the zone of inhibition at 10 µg/mL (Alternaria alternata; 0.01 mg/ml) of the same compound?
A: The zone of inhibition at 10 µg/mL was 0 mm.

Q: What about the zone of inhibition at 50 µg/mL (Alternaria alternata; 0.05 mg/ml) of the same compound?
A: The zone of inhibition at 50 µg/mL was 0 mm.

Q: And the zone of inhibition at 500 µg/mL (Alternaria alternata; 0.5 mg/ml)?
A: The zone of inhibition at 500 µg/mL was 0 mm.

Q: What about the zone of inhibition at 1000 µg/mL (Alternaria alternata; 1.0 mg/ml) of the same compound?
A: The zone of inhibition at 1000 µg/mL was 0 mm.

Q: What about the IC50 [4] of the same compound?
A: Its IC50 is 2 µg/mL (≈ 3.02 µM).

Q: And the zone of inhibition at 10 µg/mL (Monilinia fructigena; 0.01 mg/ml)?
A: The zone of inhibition at 10 µg/mL was 20 mm.

Q: What about the zone of inhibition at 50 µg/mL (Monilinia fructigena; 0.05 mg/ml) of the same compound?
A: The zone of inhibition at 50 µg/mL was 34 mm.

Q: What about the zone of inhibition at 500 µg/mL (Monilinia fructigena; 0.5 mg/ml) of the same compound?
A: Its zone of inhibition at 500 µg/mL is 45 mm.

Q: What about the zone of inhibition at 1000 µg/mL (Monilinia fructigena; 1.0 mg/ml) of the same compound?
A: The zone of inhibition at 1000 µg/mL was 50 mm.

Q: And the protection (Botrytis cinerea [5]; 37 ppm)?
A: The protection was “approx. 10%”.

Q: What about the protection (Botrytis cinerea [5]; 375 ppm) of the same compound?
A: Its protection is “approx. 60%”.

Q: And the protection (Botrytis cinerea [5]; 1000 ppm)?
A: The protection was “approx. 60%”.
